What was measured:
[1] = tested on: CD11b expression on neutrophils; experiment: fMLF-induced CD11b expression on neutrophils; assay type: cell-based; conditions: Neutrophil; human neutrophils, 30 nM fMLF
Description: CD18/CD11b (Mac-1) expression on neutrophils was measured as previously described (Derian et al., 1995, J. Immunol., 154:308-3 17) with the following modifications. Neutrophils were isolated as described above, then resuspended in complete medium at 1×10^6 cells/ml, pretreated with compounds at 10, 1, 0.1, 0.01, and 0 μM in duplicate at a final DMSO concentration of 0.1% for 10 minutes at 37° C. 5% CO2. Cells were then stimulated with 30 nM fMLF for 30 minutes and then chilled to 4° C. Cells were treated with rabbit IgG (Jackson ImmunoResearch Labs, West Grove, Pa., USA) (10 μg/1×10^6 cells) to block Fc receptors, stained with CD18-FITC and CD11b-PE (Becton Dickinson), and analyzed by flow cytometry on a FACSCalibur. CD18/CD11b expression (mean fluorescence) in the absence of stimulation was subtracted from all samples to obtain inhibition curves and calculate IC50 values.

[2] = tested on: conscious ferret; experiment: Emesis and behavioral changes in conscious ferret; assay type: in vivo
Description: The conscious ferret model has been used to investigate anti-inflammatory, emetic and behavioral effects of PDE4 inhibitors when administered by the oral (p.o.) route. From these experiments, a therapeutic index (TI) for each PDE4 inhibitor may be determined. The TI has been calculated by dividing the threshold dose for causing emetic episodes and behavioral changes by the anti-inflammatory dose (dose that causes 50% inhibition of the LPS-induced neutrophilia).
PDE4 inhibitors were administered orally (p.o.), at doses initially of […], but subsequently up to 30 mg/kg in order to establish whether the TI was 10 or higher, and/or at lower doses to establish the minimum dose to cause 50% inhibition of neutrophilia. Ferrets were fasted overnight but allowed free access to water. The animals were orally dosed with vehicle or PDE4 inhibitor using a 15 cm dosing needle that was passed down the back of the throat into the oesophagus. After dosing, the animals were returned to holding cages fitted with Perspex doors to allow observation, and given free access to water. After dosing, the animals were constantly observed and any emesis or behavioral changes were recorded. The animals were allowed access to food 60 to 90 minutes after p.o. dosing.
Thirty minutes after p.o. dosing with compound or vehicle control, the ferrets were placed into sealed Perspex containers and exposed to an aerosol of LPS (100 μg/ml) for 10 minutes. Aerosols of LPS were generated by a nebulizer (DeVilbiss, USA) and this was directed into the Perspex exposure chamber. Following a 10 minute exposure period, the animals were returned to the holding cages and allowed free access to water, and at a later stage, food. Observation continued for a period of at least 2.5 hours post p.o. dosing and emetic episodes and behavioral changes were recorded.
2. Emetic episodes—the number of vomits and retches were counted.
3. Behavioral changes—the following behavioral effects were noted: salivation, panting, mouth clawing, flattened posture, ataxia, arched back and backward walking Any behavioral changes were semi-quantified by applying a severity rating (mild, moderate or severe).
4. The TI was calculated as the highest dose found to not cause emetic episodes divided by the lowest dose found to inhibit pulmonary neutrophilia by 50% or more.
Numbers in parentheses refer to the number of animals that responded. The numbers of animals in each group range from 4 to 22.
From these experiments, a therapeutic index (TI) was determined for each compound by dividing the threshold dose for inducing emetic episodes by the ED50 value for inhibiting the pulmonary neutrophilia.

CCOc1cc(C(CS(C)(=O)=O)N2C(=O)c3cccc(NC(C)=O)c3C2=O)ccc1OC (single isomer, unassigned; (+)) [Compound A, (+)-2-[1-(3-ethoxy-4-methoxyphenyl)-2-methylsulfonylethyl]-4-acetylaminoisoindoline-1,3-dione] was tested, and the IC50 [1] was 74 nM, the Threshold emetic dose ([2]; conscious ferret, p.o.) was 10 mg/kg and the “Ataxia, severity” value ([2]; ferret, 0.1 mg/kg p.o.) was “None”. The “Backward walking, number of animals that responded” value (shortened to “Backward walking, number”) ([2]; ferret, 0.1 mg/kg p.o.) was “(3/5)”, the “Backward walking, severity” value ([2]; ferret, 0.1 mg/kg p.o.) was “Mild” and the “Flattened posture, number of animals that responded” value (“Flattened posture, number” for short) ([2]; ferret, 0.1 mg/kg p.o.) was “(2/5)”. For the same molecule, the “Flattened posture, severity” value ([2]; ferret, 0.1 mg/kg p.o.) was “Mild”, the “Lip licking, number of animals that responded” value (“Lip licking, number” for short) ([2]; ferret, 0.1 mg/kg p.o.) was “(4/5)” and the “Lip licking, severity” value ([2]; ferret, 0.1 mg/kg p.o.) was “Mild”. The “Mouth clawing, severity” value ([2]; ferret, 0.1 mg/kg p.o.) was “None”, the “Panting, severity” value ([2]; ferret, 0.1 mg/kg p.o.) was “None” and the “Retches, severity” value ([2]; ferret, 0.1 mg/kg p.o.) was “None”. For the same molecule, the “Salivation, severity” value ([2]; ferret, 0.1 mg/kg p.o.) was “None”, the “Vomits, severity” value ([2]; ferret, 0.1 mg/kg p.o.) was “None” and the “Ataxia, severity” value ([2]; ferret, 0.3 mg/kg p.o.) was “None”. The “Backward walking, number” value ([2]; ferret, 0.3 mg/kg p.o.) was “(4/6)”, the “Backward walking, severity” value ([2]; ferret, 0.3 mg/kg p.o.) was “Mild” and the “Flattened posture, number” value ([2]; ferret, 0.3 mg/kg p.o.) was “(2/6)”. For the same molecule, the “Flattened posture, severity” value ([2]; ferret, 0.3 mg/kg p.o.) was “Mild”, the “Lip licking, number” value ([2]; ferret, 0.3 mg/kg p.o.) was “(3/6)” and the “Lip licking, severity” value ([2]; ferret, 0.3 mg/kg p.o.) was “Mild”. For the same molecule, the “Mouth clawing, severity” value ([2]; ferret, 0.3 mg/kg p.o.) was “None”, the “Panting, severity” value ([2]; ferret, 0.3 mg/kg p.o.) was “None” and the “Retches, severity” value ([2]; ferret, 0.3 mg/kg p.o.) was “None”. The “Salivation, severity” value ([2]; ferret, 0.3 mg/kg p.o.) was “None”, the “Vomits, severity” value ([2]; ferret, 0.3 mg/kg p.o.) was “None” and the “emetic episodes at anti-inflammatory dose” value ([2]; ferret, 1 mg/kg) was “no emetic episodes”. The “Ataxia, severity” value ([2]; ferret, 1.0 mg/kg p.o.) was “None”, the “Backward walking, number” value ([2]; ferret, 1.0 mg/kg p.o.) was “(4/6)” and the “Backward walking, severity” value ([2]; ferret, 1.0 mg/kg p.o.) was “Mild”. The “Flattened posture, number” value ([2]; ferret, 1.0 mg/kg p.o.) was “(2/6)”, the “Flattened posture, severity” value ([2]; ferret, 1.0 mg/kg p.o.) was “Mild” and the “Lip licking, number” value ([2]; ferret, 1.0 mg/kg p.o.) was “(6/6)”. The “Lip licking, severity” value ([2]; ferret, 1.0 mg/kg p.o.) was “Mild”, the “Mouth clawing, severity” value ([2]; ferret, 1.0 mg/kg p.o.) was “None” and the “Panting, severity” value ([2]; ferret, 1.0 mg/kg p.o.) was “None”. For the same molecule, the “Retches, severity” value ([2]; ferret, 1.0 mg/kg p.o.) was “None”, the “Salivation, severity” value ([2]; ferret, 1.0 mg/kg p.o.) was “None” and the “Vomits, severity” value ([2]; ferret, 1.0 mg/kg p.o.) was “None”. The “Ataxia, severity” value ([2]; ferret, 3.0 mg/kg p.o.) was “None”, the “Backward walking, number” value ([2]; ferret, 3.0 mg/kg p.o.) was “(5/8)” and the “Backward walking, severity” value ([2]; ferret, 3.0 mg/kg p.o.) was “Moderate”. For the same molecule, the “Flattened posture, number” value ([2]; ferret, 3.0 mg/kg p.o.) was “(7/8)”, the “Flattened posture, severity” value ([2]; ferret, 3.0 mg/kg p.o.) was “Marked” and the “Lip licking, number” value ([2]; ferret, 3.0 mg/kg p.o.) was “(2/8)”. For the same molecule, the “Lip licking, severity” value ([2]; ferret, 3.0 mg/kg p.o.) was “Mild”, the “Mouth clawing, number of animals that responded” value (shortened to “Mouth clawing, number”) ([2]; ferret, 3.0 mg/kg p.o.) was “(1/8)” and the “Mouth clawing, severity” value ([2]; ferret, 3.0 mg/kg p.o.) was “Mild”. For the same molecule, the “Panting, severity” value ([2]; ferret, 3.0 mg/kg p.o.) was “None”, the “Retches, severity” value ([2]; ferret, 3.0 mg/kg p.o.) was “None” and the “Salivation, severity” value ([2]; ferret, 3.0 mg/kg p.o.) was “None”. The “Vomits, severity” value ([2]; ferret, 3.0 mg/kg p.o.) was “None”, the “Ataxia, severity” value ([2]; ferret, 10 mg/kg p.o.) was “None” and the “Backward walking, number” value ([2]; ferret, 10 mg/kg p.o.) was “(6/6)”. For the same molecule, the “Backward walking, severity” value ([2]; ferret, 10 mg/kg p.o.) was “Marked”, the “Flattened posture, number” value ([2]; ferret, 10 mg/kg p.o.) was “(6/6)” and the “Flattened posture, severity” value ([2]; ferret, 10 mg/kg p.o.) was “Marked”. For the same molecule, the “Lip licking, number” value ([2]; ferret, 10 mg/kg p.o.) was “(5/6)”, the “Lip licking, severity” value ([2]; ferret, 10 mg/kg p.o.) was “Moderate” and the “Mouth clawing, number” value ([2]; ferret, 10 mg/kg p.o.) was “(1/6)”. The “Mouth clawing, severity” value ([2]; ferret, 10 mg/kg p.o.) was “Mild”, the “Panting, severity” value ([2]; ferret, 10 mg/kg p.o.) was “None” and the “Retches, severity” value ([2]; ferret, 10 mg/kg p.o.) was “Mild”. The “Salivation, number of animals that responded” value ([2]; ferret, 10 mg/kg p.o.) was 1/6, the “Salivation, severity” value ([2]; ferret, 10 mg/kg p.o.) was “Mild” and the “Vomits, severity” value ([2]; ferret, 10 mg/kg p.o.) was “None”. The emesis ([2]; ferret, 10 mg/kg p.o.) was “no frank emesis”, the “salivation and behavioral changes, score” value ([2]; ferret, 10 mg/kg p.o.) was “mild or moderate” and the “Retches, number of animals that responded” value ([2]; ferret, 10 mg/kg p.o., 10 mg/kg) was 2/6 and (2/6). For the same molecule, the “Ataxia, number of animals that responded” value ([2]; ferret, 30 mg/kg p.o.) was “(3/4)”, the “Ataxia, severity” value ([2]; ferret, 30 mg/kg p.o.) was “Mild” and the “Backward walking, number” value ([2]; ferret, 30 mg/kg p.o.) was “(2/4)”. The “Backward walking, severity” value ([2]; ferret, 30 mg/kg p.o.) was “Mild”, the “Flattened posture, number” value ([2]; ferret, 30 mg/kg p.o.) was “(4/4)” and the “Flattened posture, severity” value ([2]; ferret, 30 mg/kg p.o.) was “Marked”. The “Lip licking, number” value ([2]; ferret, 30 mg/kg p.o.) was “(4/4)”, the “Lip licking, severity” value ([2]; ferret, 30 mg/kg p.o.) was “Moderate” and the “Mouth clawing, number” value ([2]; ferret, 30 mg/kg p.o.) was “(4/4)”. For the same molecule, the “Mouth clawing, severity” value ([2]; ferret, 30 mg/kg p.o.) was “Marked”, the “Panting, number of animals that responded” value ([2]; ferret, 30 mg/kg p.o.) was “(1/4)” and the “Panting, severity” value ([2]; ferret, 30 mg/kg p.o.) was “Mild”. The “Retches, number of animals that responded” value ([2]; ferret, 30 mg/kg p.o.) was “(3/4)”, the “Retches, severity” value ([2]; ferret, 30 mg/kg p.o.) was “Marked” and the “Salivation, number of animals that responded” value ([2]; ferret, 30 mg/kg p.o.) was “(3/4)”. For the same molecule, the “Salivation, severity” value ([2]; ferret, 30 mg/kg p.o.) was “Moderate”, the “Vomits, number of animals that responded” value ([2]; ferret, 30 mg/kg p.o.) was “(3/4)” and the “Vomits, severity” value ([2]; ferret, 30 mg/kg p.o.) was “Moderate”. The behavioral changes ([2]; ferret, 30 mg/kg p.o.) was “pronounced”, the “emesis, animals affected” value ([2]; ferret, 30 mg/kg p.o.) was 3/4 and the “emesis, severity” value ([2]; ferret, 30 mg/kg p.o.) was “moderate to marked”. For the same molecule, the “behavioral changes (flattened posture, lip licking, backward walking), classification” value ([2]; ferret, 0.1-3 mg/kg p.o.) was “mild”, the “emetic episodes (retching and vomiting)” value ([2]; ferret, 0.1-3 mg/kg p.o.) was “no emetic episodes” and the Therapeutic index ([2]; threshold emetic dose divided by ED50 for pulmonary neutrophilia, ferret) was 12.
